In US20190292155A1, “THERAPEUTIC INHIBITORY COMPOUNDS” (LifeSci Pharmaceuticals, Inc., priority 2016, published 2019):
Read-outs that look alike come from different tables or passages of the source.

Molecular target: T1, human complement factor D (Homo sapiens, UniProt P00746)
T1 construct: purchased R&D Systems 1824-SE
Test: In vitro enzyme inhibition of human complement factor D (Z-Lys-SBzl/DTNB, A405)
Format: biochemical
Experimental: The ability of the compounds disclosed herein to inhibit human complement factor D inhibitory activity was quantified according to the 12-step protocol provided below. • 1. Prepare assay buffer: 50 mM Tris/HCl, pH 7.5, 1 M NaCl. • 2. […] Then dilute the serial concentrations of Nafamostat Mesilate 20-fold in assay buffer. • 3. […] 0.5% DMSO was in each well finally. • 4. […] Add 10 μl diluted test compounds duplicated into the 96-well plate. […] 0.5% DMSO was in each well finally. • 6. Dilute 20 mM substrate Z-Lys-SBzl (Bachem, Cat# M-1300) to 200 μM in assay buffer with 200 μM DTNB (Sigma, Catalog# D8130). • 7. […] Add 40 μl diluted Complement Factor D in the 96-well plate. • 8. Positive control well contains Complement Factor D without test compound. Negative control well contains neither Complement Factor D nor test compound. Using assay buffer, bring the total volume of all controls to 50 al. • 9. Pre-incubate the plate for 5 min at room temperature. • 10. Add 50 μl of diluted substrate/DTNB mixture into each well. […] For kinetic reading: Immediately start measuring absorbance (A405 nm) continuously and record data every 30 sec for 60 min. • 12. Data analysis • Inhibition activity of compound was evaluated by IC50. IC50 was calculated according the dose-response curve of compound fitted using GraphPadPrism with “log(inhibitor)-response (variable slope)” equation. • % inhibition was calculated by using following equation:
[formula] • Mean(NC): The average value of the negative control wells' A405 nm values. • Mean(PC): The average value of the positive control wells' A405 nm values.

[1] = biochemical assay, substrate Z-Lys-SBzl, read-out: CFD IC50

T1 sequence (P00746 26-253): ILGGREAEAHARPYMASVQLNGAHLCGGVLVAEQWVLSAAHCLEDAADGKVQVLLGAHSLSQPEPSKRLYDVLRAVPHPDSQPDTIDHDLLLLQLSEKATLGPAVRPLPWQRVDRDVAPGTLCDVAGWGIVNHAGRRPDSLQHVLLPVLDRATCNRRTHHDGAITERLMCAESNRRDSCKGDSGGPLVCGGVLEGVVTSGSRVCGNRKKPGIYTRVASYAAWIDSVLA

| Compound | IC50 [1] | IC50 |
| --- | --- | --- |
| CC(CC(=O)O)N(CC(=O)NCc1cccc(Cl)c1F)C(=O)Cn1nc(C(N)=O)c2ccccc21 (stereo not shown) [Example 74, 3-(2-(3-carbamoyl-1H-indazol-1-yl)-N-(2-((3-chloro-2-fluorobenzyl)amino)-2-oxoethyl)acetamido)butanoic acid] | 1 to 10 µM |  |
| NC(=O)CC(C1CC1)N(CC(=O)NCc1cccc(Cl)c1F)C(=O)Cn1nc(C(N)=O)c2ccccc21 (stereo not shown) [Example 75, 1-(2-((3-amino-1-cyclopropyl-3-oxopropyl)(2-((3-chloro-2-fluorobenzyl)amino)-2-oxoethyl)amino)-2-oxoethyl)-1H-indazole-3-carboxamide] | 1 to 10 µM |  |
| CC(CC(N)=O)N(CC(=O)NCc1cccc(Cl)c1F)C(=O)Cn1nc(C(N)=O)c2ccccc21 (stereo not shown) [Example 76, 1-(2-((4-amino-4-oxobutan-2-yl)(2-((3-chloro-2-fluorobenzyl)amino)-2-oxoethyl)amino)-2-oxoethyl)-1H-indazole-3-carboxamide] | 0.1 to 1 µM |  |
| CCOC(=O)CC(N(CC(=O)NCc1cccc(Cl)c1F)C(=O)Cn1nc(C(N)=O)c2ccccc21)C(F)(F)F (stereo not shown) [Example 77, ethyl 3-(2-(3-carbamoyl-1H-indazol-1-yl)-N-(2-((3-chloro-2-fluorobenzyl)amino)-2-oxoethyl)acetamido)-4,4,4-trifluorobutanoate] | 1 to 10 µM |  |
| NC(=O)c1nn(CC(=O)N(CC(=O)NCc2cccc(Cl)c2F)C2CC2)c2ccc(F)cc12 [Example 78, 1-(2-((2-((3-chloro-2-fluorobenzyl)amino)-2-oxoethyl)(cyclopropyl)amino)-2-oxoethyl)-5-fluoro-1H-indazole-3-carboxamide] |  | 0.1 to 1 µM |
| NC(=O)c1nn(CC(=O)N(CC(=O)NCc2cccc(Cl)c2F)C(CC(=O)O)C(F)(F)F)c2ccccc12 (stereo not shown) [Example 79, 3-(2-(3-carbamoyl-1H-indazol-1-yl)-N-(2-((3-chloro-2-fluorobenzyl)amino)-2-oxoethyl)acetamido)-4,4,4-trifluorobutanoic acid] | 1 to 10 µM |  |
| NC(=O)c1nn(CC(=O)N(CC(=O)NCc2cccc(Cl)c2F)C2CC2)c2ccc(Cl)cc12 [Example 80, 5-chloro-1-(2-((2-((3-chloro-2-fluorobenzyl)amino)-2-oxoethyl)(cyclopropyl)amino)-2-oxoethyl)-1H-indazole-3-carboxamide] |  | 0.1 to 1 µM |
| NC(=O)c1nn(CC(=O)N(CC(=O)NCc2cccc(Cl)c2F)C2CC2)c2c(Cl)cccc12 [Example 81, 7-chloro-1-(2-((2-((3-chloro-2-fluorobenzyl)amino)-2-oxoethyl)(cyclopropyl)amino)-2-oxoethyl)-1H-indazole-3-carboxamide] | < 0.1 µM |  |
| NC(=O)c1nn(CC(=O)N(CC(=O)NCc2c(F)ccc(Cl)c2F)C2CC2)c2ccccc12 [Example 82, 1-(2-((2-((3-chloro-2,6-difluorobenzyl)amino)-2-oxoethyl)(cyclopropyl)amino)-2-oxoethyl)-1H-indazole-3-carboxamide] |  | 0.1 to 1 µM |
| NC(=O)c1nn(CC(=O)N(CC(=O)NCc2ccc(F)c(Cl)c2F)C2CC2)c2ccccc12 [Example 83, 1-(2-((2-((3-chloro-2,4-difluorobenzyl)amino)-2-oxoethyl)(cyclopropyl)amino)-2-oxoethyl)-1H-indazole-3-carboxamide] | 0.1 to 1 µM |  |
| NC(=O)c1nn(CC(=O)N(CC(=O)NCc2cccc(Cl)c2F)C2CC2)c2cc(F)ccc12 [Example 84, 1-(2-((2-((3-chloro-2-fluorobenzyl)amino)-2-oxoethyl)(cyclopropyl)amino)-2-oxoethyl)-6-fluoro-1H-indazole-3-carboxamide] |  | 0.1 to 1 µM |
| NC(=O)c1nn(CC(=O)N(CC(=O)NCc2cccc(Cl)c2F)C2CC2)c2cc(Cl)ccc12 [Example 85, 6-chloro-1-(2-((2-((3-chloro-2-fluorobenzyl)amino)-2-oxoethyl)(cyclopropyl)amino)-2-oxoethyl)-1H-indazole-3-carboxamide] |  | 0.1 to 1 µM |
| N#Cc1ccc2c(C(N)=O)nn(CC(=O)N(CC(=O)NCc3cccc(Cl)c3F)C3CC3)c2c1 [Example 86, 1-(2-((2-((3-chloro-2-fluorobenzyl)amino)-2-oxoethyl)(cyclopropyl)amino)-2-oxoethyl)-6-cyano-1H-indazole-3-carboxamide] |  | 0.1 to 1 µM |
| NC(=O)c1ccc2c(C(N)=O)nn(CC(=O)N(CC(=O)NCc3cccc(Cl)c3F)C3CC3)c2c1 [Example 100, 1-(2-((2-((3-chloro-2-fluorobenzyl)amino)-2-oxoethyl)(cyclopropyl)amino)-2-oxoethyl)-1H-indazole-3,6-dicarboxamide] |  | < 0.1 µM |

The next lines start with results.

| IC50 [1] | Compound | IC50 |
| --- | --- | --- |
| 0.1 to 1 µM | N#Cc1ccc(Cl)c(F)c1CNC(=O)CN(C(=O)Cn1nc(C(N)=O)c2ccccc21)C1CC1 [Example 87, 1-(2-((2-((3-chloro-6-cyano-2-fluorobenzyl)amino)-2-oxoethyl)(cyclopropyl)amino)-2-oxoethyl)-1H-indazole-3-carboxamide] |  |
| 0.1 to 1 µM | NC(=O)c1nn(CC(=O)N(CC(=O)NCc2cccc(Cl)c2F)C2CC2)c2c(F)cccc12 [Example 88, 1-(2-((2-((3-chloro-2-fluorobenzyl)amino)-2-oxoethyl)(cyclopropyl)amino)-2-oxoethyl)-7-fluoro-1H-indazole-3-carboxamide] |  |
| 1 to 10 µM | NCc1ccc2c(C(N)=O)nn(CC(=O)N(CC(=O)NCc3cccc(Cl)c3F)C3CC3)c2c1 [Example 89, 6-(aminomethyl)-1-(2-((2-((3-chloro-2-fluorobenzyl)amino)-2-oxoethyl)(cyclopropyl)amino)-2-oxoethyl)-1H-indazole-3-carboxamide] |  |
| 1 to 10 µM | N#Cc1cc(Cl)c(F)c(CNC(=O)CN(C(=O)Cn2nc(C(N)=O)c3ccccc32)C2CC2)c1 [Example 90, 1-(2-((2-((3-chloro-5-cyano-2-fluorobenzyl)amino)-2-oxoethyl)(cyclopropyl)amino)-2-oxoethyl)-1H-indazole-3-carboxamide] |  |
| 0.1 to 1 µM | NC(=O)c1nn(CC(=O)N(CC(=O)NCc2cc(Cl)cc3[nH]ncc23)C2CC2)c2ccccc12 [Example 91, 1-(2-((2-(((6-chloro-1H-indazol-4-yl)methyl)amino)-2-oxoethyl)(cyclopropyl)amino)-2-oxoethyl)-1H-indazole-3-carboxamide] |  |
| 0.1 to 1 µM | N#Cc1ccc2c(c1)c(C(N)=O)nn2CC(=O)N(CC(=O)NCc1cccc(Cl)c1F)C1CC1 [Example 92, 1-(2-((2-((3-chloro-2-fluorobenzyl)amino)-2-oxoethyl)(cyclopropyl)amino)-2-oxoethyl)-5-cyano-1H-indazole-3-carboxamide] |  |
| 0.1 to 1 µM | NC(=O)c1ccc2c(c1)c(C(N)=O)nn2CC(=O)N(CC(=O)NCc1cccc(Cl)c1F)C1CC1 [Example 93, 1-(2-((2-((3-chloro-2-fluorobenzyl)amino)-2-oxoethyl)(cyclopropyl)amino)-2-oxoethyl)-1H-indazole-3,5-dicarboxamide] |  |
| 0.1 to 1 µM | NC(=O)c1nn(CC(=O)N(CC(=O)NCc2cccc(Cl)c2F)C2CC2)c2cc(C(F)(F)F)ccc12 [Example 94, 1-(2-((2-((3-chloro-2-fluorobenzyl)amino)-2-oxoethyl)(cyclopropyl)amino)-2-oxoethyl)-6-(trifluoromethyl)-1H-indazole-3-carboxamide] |  |
| 1 to 10 µM | NC(=O)c1nn(CC(=O)N(CC(=O)NCc2cccc(Cl)c2F)C2CC2)c2ccc(C(F)(F)F)cc12 [Example 95, 1-(2-((2-((3-chloro-2-fluorobenzyl)amino)-2-oxoethyl)(cyclopropyl)amino)-2-oxoethyl)-5-(trifluoromethyl)-1H-indazole-3-carboxamide] |  |
| 1 to 10 µM | N#Cc1ccc(CNC(=O)CN(C(=O)Cn2nc(C(N)=O)c3ccccc32)C2CC2)c(F)c1Cl [Example 96, 1-(2-((2-((3-chloro-4-cyano-2-fluorobenzyl)amino)-2-oxoethyl)(cyclopropyl)amino)-2-oxoethyl)-1H-indazole-3-carboxamide] |  |
| 1 to 10 µM | NC(=O)c1nn(CC(=O)N(CC(=O)NCc2cccc(Cl)c2F)C2CC2)c2cccc(F)c12 [Example 97, 1-(2-((2-((3-chloro-2-fluorobenzyl)amino)-2-oxoethyl)(cyclopropyl)amino)-2-oxoethyl)-4-fluoro-1H-indazole-3-carboxamide] |  |
| 1 to 10 µM | O=C(CN(C(=O)Cn1nc(-c2ncc[nH]2)c2ccccc21)C1CC1)NCc1cccc(Cl)c1F [Example 98, 2-(3-(1H-imidazol-2-yl)-1H-indazol-1-yl)-N-(2-((3-chloro-2-fluorobenzyl)amino)-2-oxoethyl)-N-cyclopropylacetamide] |  |
| > 10 µM | NC(=O)c1nn(CC(=O)N(CC(=O)NCc2ccc(CO)c(Cl)c2F)C2CC2)c2ccccc12 [Example 99, 1-(2-((2-((3-chloro-2-fluoro-4-(hydroxymethyl)benzyl)amino)-2-oxoethyl)(cyclopropyl)amino)-2-oxoethyl)-1H-indazole-3-carboxamide] |  |
| 1 to 10 µM | NCc1cc(Cl)c(F)c(CNC(=O)CN(C(=O)Cn2nc(C(N)=O)c3ccccc32)C2CC2)c1 [Example 101, 1-(2-((2-((5-(aminomethyl)-3-chloro-2-fluorobenzyl)amino)-2-oxoethyl)(cyclopropyl)amino)-2-oxoethyl)-1H-indazole-3-carboxamide] |  |
